Laboratory results as given in patent US20180264074A1, “USE OF POLYMYXIN AS AN ANTIDOTE FOR INTOXICATIONS BY AMATOXINS” (UNIVERSIDADE DO PORTO, priority 2015, published 2018).

Columns and labels:
[1] = tested on: adult male mice (CD-1); type: in vivo
Protocol: (§1) For this purpose, adult male mice (CD-1) were used. Two experiments were performed to test polymyxin B effectiveness: polymyxin B was administered concomitantly with α-amanitin and four hours after administration of α-amanitin. Concomitant therapy consisted of 0.33 mg/kg of α-amanitin followed by 2.5 mg/kg of polymyxin B (one administration). In the second experiment, three 2.5 mg/kg administrations of polymyxin B were used in different time-points [4, 8 and 12 h, intraperitoneal (i.p.) administration] after one α-amanitin (dose 0.33 mg/kg i.p.) exposure, as to mimic the clinical scenario of late intoxication diagnosis; human intoxication is often only found hours later when symptoms become clinically relevant. […] Moreover 50% of animal exposed to polymyxin B 4, 8 and 12 h after α-amanitin survived […]. In order to validate and unveil some mechanisms involved, an acute study with the same doses and scheme was performed, with animals being sacrificed 24 h after α-amanitin administration.
FIG. 1. Survival curves after concomitant i.p. administration of 0.33 mg/kg of α-amanitin and polymyxin B (Ama+Pol— 2.5 mg/kg) and 3 administrations of polymyxin B (Ama+Pol— 3×2.5 mg/kg) at different time-points (4, 8 and 12 h, i.p. administration) after one α-amanitin (dose 0.33 mg/kg i.p.). Results are expressed in percent survival. Control tests were performed (Control), consisting of a saline-control treatment. A polymyxin treatment (Pol) was additionally performed. A treatment with α-amanitin (Ama) as also made.
For this purpose, adult male mice (CD-1) were used. Two experiments were performed to test polymyxin B effectiveness: polymyxin B was administered concomitantly with α-amanitin and four hours after administration of α-amanitin. Concomitant therapy consisted of 0.33 mg/kg of α-amanitin followed by 2.5 mg/kg of polymyxin B (one administration). In the second experiment, three 2.5 mg/kg administrations of polymyxin B were used in different time-points (4, 8 and 12 h, i.p. administration) after one α-amanitin exposure (0.33 mg/kg i.p dose), as to mimic the clinical scenario of late intoxication diagnosis; human intoxication is often only found hours later when symptoms become clinically relevant. […] Moreover, 50% of animals exposed to polymyxin B 4, 8 and 12 h after α-amanitin survived (FIG. 1). In order to validate and unveil some mechanisms involved, an acute study with the same doses and scheme was performed with polymyxin B 4, 8 and 12 h after α-amanitin administration. Animals were sacrificed 24 h after α-amanitin administration. […] The renal corpuscles appearance is heterogeneous, with a wide capsular space, and thickened external Bowman capsule. […]

[2] = tested on: adult male mice (CD-1); test: Acute study, animals sacrificed 24 h after α-amanitin: plasma aminotransferases, liver and kidney histology; type: in vivo
Protocol: as §1
FIG. 2. Plasma levels of Aspartate aminotransferase (AST) and alanine aminotransferase (ALT) in control, polymyxin B (3×2.5 mg/kg) (Pol), α-amanitin (Ama) and α-amanitin+polymyxin B (3×2.5 mg/kg) (Ama+Pol) groups. Results are presented as means±standard deviation (SD), and were obtained from 4-5 animals from each treatment. Statistical comparisons were made using Kruskal-Wallis ANOVA on Ranks followed by the Dunn's post hoc test (*p<0.05, Ama vs. control; #p<0.05, Ama vs. Ama+Pol).
FIG. 3. Liver histopathology by light microscopy. (A) Light micrograph (40×) from α-amanitin treated-group. The presence of cellular oedema (1), cytoplasmic vacuolization (2), interstitial inflammatory cell infiltration (3), as well as some necrotic zones can be seen (4). (B) Light micrograph (40×) from α-amanitin+polymixin B (3×2.5 mg/kg) group. […] Increase number interstitial inflammatory cell was still observed.
FIG. 4. Kidney histopathology by light microscopy (A) Light micrograph (10×) from α-amanitin-treated group. The presence of cytoplasmatic vacuolization (5), renal corpuscles with a wide capsular space, and thickened external Bowman capsule (6), as well as some necrotic zones can be seen (7). The presence large amounts of fibrin-related material cause enlargement and obstruction of distal tubules (8). (B) Light micrograph (10×) from α-amanitin+polymixin B (3×2.5 mg/kg) group.
For this purpose, adult male mice (CD-1) were used. Two experiments were performed to test polymyxin B effectiveness: polymyxin B was administered concomitantly with α-amanitin and four hours after administration of α-amanitin. Concomitant therapy consisted of 0.33 mg/kg of α-amanitin followed by 2.5 mg/kg of polymyxin B (one administration). In the second experiment, three 2.5 mg/kg administrations of polymyxin B were used in different time-points (4, 8 and 12 h, i.p. administration) after one α-amanitin exposure (0.33 mg/kg i.p dose), as to mimic the clinical scenario of late intoxication diagnosis; human intoxication is often only found hours later when symptoms become clinically relevant. […] Moreover, 50% of animals exposed to polymyxin B 4, 8 and 12 h after α-amanitin survived (FIG. 1). In order to validate and unveil some mechanisms involved, an acute study with the same doses and scheme was performed with polymyxin B 4, 8 and 12 h after α-amanitin administration. Animals were sacrificed 24 h after α-amanitin administration. […] The renal corpuscles appearance is heterogeneous, with a wide capsular space, and thickened external Bowman capsule. […] Marked atrophy and degeneration of distal tubules cells was also observed, and large amounts of fibrin-related material caused enlargement and obstruction of these tubules.

[3] = 24 h after α-amanitin 0.33 mg/kg i.p., polymyxin B 3×2.5 mg/kg at 4, 8 and 12 h
[4] = 24 h after α-amanitin 0.33 mg/kg i.p., polymyxin B 3×2.5 mg/kg at 4, 8 and 12 h, listed as polymixin B

Row | Compound | day until which all animals died ([1]; single dose of α-amanitin 0.33 mg/kg i.p., no antidote) | kidney histology (light microscopy) [2, 3] | liver histology (light microscopy) [2, 3] | plasma aminotransferases (AST, ALT) [2, 3] | kidney histology (light microscopy) [2, 4] | liver histology (light microscopy) [2, 4] | hepatic and renal damage (histological and plasma data) ([2]; 24 h after α-amanitin administration, same doses and scheme) | signs of injury or discomfort ([1]; concomitant polymyxin B 2.5 mg/kg with α-amanitin 0.33 mg/kg, up to day 30) | animals that survived ([1]; polymyxin B 3×2.5 mg/kg i.p. at 4, 8 and 12 h after α-amanitin 0.33 mg/kg i.p.) | animals that survived until the 30th day ([1]; α-amanitin 0.33 mg/kg i.p. followed by polymyxin B 2.5 mg/kg, one concomitant administration)
1 | CC[C@H](C)[C@@H]1NC(=O)CNC(=O)[C@@H]2Cc3c([nH]c4cc(O)ccc34)[S@+]([O-])C[C@H](NC(=O)CNC1=O)C(=O)N[C@@H](CC(N)=O)C(=O)N1C[C@H](O)C[C@H]1C(=O)N[C@@H]([C@@H](C)[C@@H](O)CO)C(=O)N2 [α-amanitin] | ≤ 5 days |  |  |  |  |  |  |  |  | 
2 | polymyxin B |  | protected against the occurrence of the above referred alterations, particularly the necrosis and the obstruction of distal tubules | significant reversion against α-amanitin-induced necrotic changes as well as the induced oedema and cytoplasmic vacuolization | totally reverted | oedema, cytoplasmatic vacuolization and necrosis, were significantly attenuated | oedema, cytoplasmatic vacuolization and necrosis, were significantly attenuated | protected against hepatic and renal damage caused by α-amanitin | without major signs of injury or discomfort | 50% | 100%
